Test results as given in publication PMC9007462 (Journal of Medicinal Chemistry, 2022).

How the values were obtained:
[1] = system: PC3; assay: MTT chemosensitivity assay, PC3; assay type: cell-based, human; settings: Homo sapiens, PC-3, 96 h exposure, ± SD, at least three independent experiments
[2] = system: LNCaP; assay: MTT chemosensitivity assay, LNCaP; assay type: cell-based, human; settings: Homo sapiens, LNCaP, 96 h exposure, ± SD, at least three independent experiments
[3] = target: T1, Human ALDH1A3 (Homo sapiens, UniProt P47895); assay: ALDH1A3 inhibition, IC50, Ki and type of inhibition; assay type: biochemical; settings: for IC50: 6 μM hexanal as substrate
T1 construct: made in house
T1 sequence (P47895 1-512): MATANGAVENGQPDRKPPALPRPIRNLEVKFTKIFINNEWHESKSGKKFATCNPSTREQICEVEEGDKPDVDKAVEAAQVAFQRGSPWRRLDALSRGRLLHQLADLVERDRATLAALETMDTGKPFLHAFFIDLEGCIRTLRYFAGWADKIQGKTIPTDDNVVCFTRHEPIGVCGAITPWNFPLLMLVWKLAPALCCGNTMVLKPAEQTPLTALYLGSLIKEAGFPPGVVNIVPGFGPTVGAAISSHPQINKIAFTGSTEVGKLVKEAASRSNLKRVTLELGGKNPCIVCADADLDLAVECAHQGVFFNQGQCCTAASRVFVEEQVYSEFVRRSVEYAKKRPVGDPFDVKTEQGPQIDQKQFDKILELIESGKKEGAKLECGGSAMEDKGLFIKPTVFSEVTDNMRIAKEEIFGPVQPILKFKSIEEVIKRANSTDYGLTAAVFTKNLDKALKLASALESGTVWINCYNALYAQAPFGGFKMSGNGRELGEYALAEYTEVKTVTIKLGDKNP

[4] = system: DU145; assay: MTT chemosensitivity assay, DU145; assay type: cell-based, human; settings: Homo sapiens, DU-145, 96 h exposure, ± SD, at least three independent experiments
[5] = system: patient-derived primary prostate tumor epithelial cells; assay: Alamar Blue cell viability of primary prostate epithelial cultures; assay type: cell-based, human; settings: 72 h; for cell viability of primary prostate epithelial cultures, combination with docetaxel: 50 and 200 μM + 1 nM docetaxel; for cell viability of primary prostate epithelial cultures, single agent: 50 and 200 μM, four cancer samples and one BPH
Method: Primary cells cultured at early passage from human prostate tissue biopsies included one BPH sample H415/15–BPH/PSA 0.61 and four PCa samples H568/15 RM–Gl7(3 + 4)/PSA 8.5, H431/14 LM–Gl7(3 + 4)/PSA 14, H488/14 RM–Gl7(3 + 4)/PSA 12.6, and H517/15 RM–Gl7(3 + 4)/PSA 4.4. Primary cells were obtained with ethical consent (REC ref 07/H1304/121) at radical prostatectomy (cancer) and transurethral resection (BPH) and were seeded as previously described[37] in 96-well plates 5000 cells/well in 100 μL of SCM and incubated at 37 °C, 5% CO2 for 24 h. […] Cells were treated with 100 μL of ALDH inhibitors at concentrations of 50 and 200 μM as single treatment. Combination treatments included 100 μL of 50 μM ALDH inhibitor + 1 nM docetaxel and 100 μL of 200 μM ALDH inhibitor + 1 nM docetaxel. Cells were also treated with 100 μL of 1 nM docetaxel only. 1 nM docetaxel was chosen since it was the IC50 when other primary samples were analyzed in our laboratory. Control wells included blank (media only) and untreated cells (DMSO only). Each experiment was performed in triplicate, and cell seeding density was the same in all wells; therefore, changes in treated cells were compared to untreated DMSO control cells. Plates were returned to the incubator for a 72 h incubation before further processing. Alamar Blue solution was added at 10% of total sample volume, and plates were incubated at 37 °C for 1–4 h before absorbance was analyzed in a plate reader.[65] Alamar Blue has an excitation wavelength of 530–560 nm and an emission wavelength of 590 nm. Total % cell viability/cell survival was calculated by dividing the absorbance of the treated sample by the absorbance of control and multiplying it by 100.

Compound | IC50 [1] [µM] | IC50 [2] [µM] | IC50 ([3]; mean ± SE) [µM] | IC50 [4] [µM] | cell viability of primary prostate epithelial cultures, combination with docetaxel [5] | cell viability of primary prostate epithelial cultures, single agent [5] | type of inhibition ALDH1A3 ([3]; hexanal as substrate) | Ki ([3]; hexanal as substrate, fit to competitive inhibition equation, mean ± SE) [µM] | fold difference in capacity to inhibit ALDH1A3, 14 vs 13 ([3]; ratio of IC50 values)
CCCN(CCC)c1ccc(C=O)cc1[N+](=O)[O-] [Compound 18, 4-(Dipropylamino)-3-Nitrobenzaldehyde] | 98 ± 12 | 31 ± 6 | 106 ± 16 | 100 ± 13 | more potent than DEAB | more potent than DEAB |  |  | 
CCCN(CCC)c1ccc(C=O)cc1Br [Compound 14, 3-Bromo-4-(dipropylamino)benzaldehyde] | 47 ± 6 | 25 ± 1 | 0.63 ± 0.02 | 61 ± 5 | more potent than DEAB | more potent than DEAB | competitive | 0.46 ± 0.15 | approximately 17 fold
